Laboratory results published in patent US20240226085A1, “KYNRENINE AND DERIVATIVES THEREOF FOR TREATING ATROPHIC SCARRING” (BirchBioMed Inc., priority 2021, published 2024).

Experiments:
[1] = system: rabbit ear hypertrophic scarring model; details: topical application to skin tissue; '523 FIG. 13; cited from earlier work
[2] = system: atrophic acne scarring on the face; assay: Topical kynurenic acid (0.5% by weight) cream for reducing appearance of atrophic acne scarring (individual user reports); type: in vivo, human; details: person
Excerpt: FIG. 1A is a photographic representation of a target facial skin area of a subject with treatment-resistant stable atrophic scarring from acne before application of topical kynurenic acid (0.5% by weight) cream.
FIG. 1B is a photographic representation of the target facial skin area of the subject of FIG. 1A after bidaily use of topical kynurenic acid (0.5% by weight) for 8 weeks. […] The dashed black box in each image highlights the similar target area on the right cheek region in both images for comparison.
I. A topical cream was made as follows, kynurenic acid was solubilized in a phosphate buffered solution of 1 M NaOH and the pH was then adjusted to 5.5 at room temperature, this KynA solution was then added with steady mixing to a dermatological compounding base (Glaxal Base™, WellSpring, Ont., Canada) and adjusted to a pH of 6 before packaging in poly bottles. Topical cream was made at 0.15%, 0.25%, 0.4%, and 0.5% kynurenic acid by weight (Papp et al., 2018).
A person presented with significant atrophic acne scarring on the face and self-reported that their acne scars had been treatment resistant for >20 years. The person applied a topical cream containing 0.5% kynurenic acid by weight twice daily for a 3-month period to the site of the atrophic acne scarring, an application rate of approximately 17 ug of kynurenic acid per cm^2 of skin per application. Initial dermatological healing can be followed by visual inspection of the site. […] An illustrative image of the “before” and “during use” is shown as FIG. 1.
A person with atrophic acne scarring on the face self-reported that the scars were “mature”, “stable”, and had persisted for “>3 years”. The person applied a topical cream containing 0.5% kynurenic acid by weight once daily for a 2-month period at an application rate of approximately 2.5-5 micrograms kynurenic acid per square cm of skin per application.

[3] = system: dermal fibroblasts; details: cited from earlier work

| SMILES | MMP-1 relative to controls [1] | collagen relative to controls [1] | remarks of others on the user's atrophic acne scars ([2]; topical cream 0.5% by weight once daily, 2-month period) | user-reported appearance of holes and indents of atrophic acne scars ([2]; topical cream 0.5% by weight once daily, 2-month period, approx. 2.5-5 micrograms per square cm per application) | time at which the reported reduction in appearance started ([2]; topical cream 0.5% by weight twice daily) | unsolicited feedback from others on appearance of acne [atrophic scarring] ([2]; topical cream 0.5% by weight twice daily, 3-month period) | subject-reported perceived appearance of atrophic acne scarring ([2]; topical cream 0.5% by weight twice daily, 3-month period, approx. 17 ug per cm^2 per application) | MMP-1 expression ([3]; '523 FIG. 2) | MMP-3 expression ([3]; '523 FIG. 3) | collagen 1 expression ([3]; '523 FIG. 10) | fibronectin expression ([3]; '523 FIG. 16) |
| --- | --- | --- | --- | --- | --- | --- | --- | --- | --- | --- | --- |
| Nc1ccccc1C(=O)CC(N)C(=O)O (racemic) [kynurenine] | increased | decreased | – | – | – | – | – | – | – | – | – |
| O=C(O)c1cc(=O)c2ccccc2[nH]1 [kynurenic acid] | – | – | less visible or less noticeable | less visible and less noticeable and appeared to be filling in | approximately 2 weeks | markedly less apparent | significant reduction | increase | increase | downregulate | downregulate |
